Source: publication PMC10743895, “Synthesis of 1,3,4-Thiadiazole Derivatives and Their Anticancer Evaluation” (International Journal of Molecular Sciences, 2023)
Read-outs that look alike come from different tables or passages of the source.

Legend:
MCF-7 cells [1] = assay: MTS cell viability assay, MCF-7 cells; format: cell-based, human; conditions: Homo sapiens
Protocol: (§1) To determine the optimal working concentration, dose-effect curves were made for each compound in the range of concentrations between 6.25 and 400 μM.
(§2) LoVo (human colorectal adenocarcinoma) human cancer cell line and HUVEC normal cells were purchased from American Type Culture Collection (ATCC). The MCF-7 human breast adenocarcinoma cell line was provided from European Collection of Authenticated Cell Cultures (ECACC). HUVEC normal cells, isolated from the vascular endothelium of an umbilical cord, were used as a reference. Adherent cells were maintained in culture in Dulbecco’s modified Eagle medium/nutrient mixture F-12 (DMEM:F12) with 2 mM of L-glutamine, 10% fetal bovine serum, 100 units/mL of penicillin and 100 μg/mL of streptomycin, and incubated at 37 °C in a 5% CO2-humidified atmosphere. After 24 h, adherent cells were treated with different concentrations of the compounds for different periods of time. Cis-Pt and DOX, conventional oncology drugs used in cancer treatments, can be used as a positive control of the experiments. […] Then, cells were detached with a nonenzymatic solution of phosphate-buffered saline (PBS)/1 mM EDTA and washed twice in PBS.
(§3) The study utilized a colorimetric assay based on MTS (chemically known as 3-(4,5-dimethylthiazol-2-yl)-5-(3-carboxymethoxyphenyl)-2-(4-sulfophenyl)-2H-tetrazolium) and called CellTiter 96 Aqueous One Solution Cell proliferation Assay (Promega, Madison, WI, USA) in order to measure cell viability. The assay was performed in triplicate in 96-well microtiter plates with a flat bottom (Falcon). A number of 1 × 10^4 cells/well were cultured in 100 μL for 24 h, culture supernatants were discarded, and then cells were treated for 24 and 48 h with increasing concentrations of the tested compound. After the end of the incubation time, 20 μL of the reagent containing MTS and PES (phenazine ethosulfate) was added in each well. Plates were incubated for 4 h at 37 °C, with mild agitation every 15 min. The reduction in the tetrazolium compound to formazan was spectrophotometrically measured at λ = 492 nm using a Dynex plate reader (DYNEX Technologies MRS, Chantilly, VA, USA). The percentage of viability compared to untreated cells (considered 100% viable) was calculated with the formula:(1) Cell viability (%)=Absorbance treated cells−Absorbance culture medium/Absorbance untreated cells−Absorbance culture medium×100
(§4) The cell viability compared was calculated and data were expressed as a mean ± standard deviation (SD) of the experiments and obtained in triplicate (n = 3).

Daphnia magna = Daphnia magna toxicity assay; format: in vivo; conditions: up to 200 µM
Protocol: (§5) The Daphnia magna bioassay results are presented in Table 3 as the maximum average percentage of lethality (L%) registered for each compound and the median lethal concentration (LC50) if the values permitted its calculation.
(§6) Daphnia magna Straus is parthenogenetically maintained at ‘Carol Davila’ University’s Department of Pharmaceutical Botany and Cell Biology. The culture was consistently maintained at a temperature of 25 °C, with a 16-h light and 8-h dark photoperiod. To ensure consistency, young daphnids were carefully chosen based on their size and kept in an artificial medium for 24 h prior to the assessment. The bioassay involved 10 daphnids per replicate, using tissue culture plates with 12 wells from Greiner Bio-One. The experimental procedure followed the protocol described in previous studies.
(§7) Each determination was carried out in duplicate.

[2] = Daphnia magna toxicity assay; format: in vivo; conditions: Daphnia magna, in vivo
Protocol: as §5, §6, §7

MCF-7 cells [3] = assay: Apoptosis assay (Annexin V-FITC/PI flow cytometry), MCF-7; format: cell-based, human
Protocol: (§8) Two reference concentrations, 5 μM and 50 μM, and two distinct treatment durations, 24 and 48 h, were employed to assess the influence of the test compounds on apoptosis in both normal and tumor cells. […] HUVEC cells were exposed to both drugs.
(§9) The apoptosis assay was performed according to the manufacturer’s instructions using the Annexin V-FITC kit (BD Biosciences, San Jose, CA, USA). Cells untreated and treated with the experimental compound were suspended in a cold binding buffer. The percentages of apoptotic cells were determined by double staining with Annexin V-FITC/PI. In each tube was added 400 μL of Annexin V binding buffer and the 5000 cells/sample for 15 min in the dark at room temperature. The cells were analyzed using a FACSCantoII flow-cytometer (Becton Dickinson—BD, La Jolla, CA, USA). The analysis was performed using DIVA 6.2 software to discriminate viable cells (FITC-PI-) from necrotic cells (FITC + PI+), and early apoptosis (FITC + PI) from late apoptosis.

LoVo cells [4] = assay: MTS cell viability assay, LoVo cells; format: cell-based, human; conditions: Homo sapiens, LoVo
Protocol: as §1, §2, §3, §4

HUVEC normal cells = assay: MTS cell viability assay, HUVEC normal cells; format: cell-based, human; conditions: Homo sapiens, HUVEC
Protocol: as §1, §2, §3, §4

LoVo cells [5] = assay: Apoptosis assay (Annexin V-FITC/PI flow cytometry), LoVo; format: cell-based, human
Protocol: as §8, §9

HUVEC cells = assay: Apoptosis assay (Annexin V-FITC/PI flow cytometry), HUVEC; format: cell-based, human
Protocol: as §8, §9

[6] = MCF7, read-out: IC50 (48 h) MCF-7, 48 h exposure
[7] = MCF7, 24 h exposure, read-out: IC50 (24 h) MCF-7
[8] = read-out: IC50 (48 h) LoVo, 48 h exposure
[9] = 24 h exposure, read-out: IC50 (24 h) LoVo
[10] = read-out: IC50 (48 h) HUVEC, 48 h exposure
[11] = 24 h exposure, read-out: IC50 (24 h) HUVEC

| Compound | IC50 (MCF-7 cells [1]; [6]) | IC50 (MCF-7 cells [1]; [7]) | Maximum Average L% (lethality) (Daphnia magna; 24 h) | Maximum Average L% (lethality) (Daphnia magna; 48 h) | LC50 at 48 h [2] | Total Apoptosis (%) 24 h MCF-7 (MCF-7 cells [3]; 5 μM) | Total Apoptosis (%) 48 h MCF-7 (MCF-7 cells [3]; 5 μM) | Total Apoptosis (%) 24 h MCF-7 (MCF-7 cells [3]; 50 μM) | IC50 (LoVo cells [4]; [8]) | IC50 (LoVo cells [4]; [9]) | IC50 (HUVEC normal cells; [10]) | IC50 (HUVEC normal cells; [11]) | Total Apoptosis (%) 24 h LoVo (LoVo cells [5]; 5 μM) | Total Apoptosis (%) 48 h LoVo (LoVo cells [5]; 5 μM) | Total Apoptosis (%) 24 h LoVo (LoVo cells [5]; 50 μM) | Total Apoptosis (%) 48 h LoVo (LoVo cells [5]; 50 μM) | Total Apoptosis (%) 24 h HUVEC (HUVEC cells; 5 μM) | Total Apoptosis (%) 48 h HUVEC (HUVEC cells; 5 μM) | Total Apoptosis (%) 24 h HUVEC (HUVEC cells; 50 μM) | Total Apoptosis (%) 48 h HUVEC (HUVEC cells; 50 μM) | further results |
| --- | --- | --- | --- | --- | --- | --- | --- | --- | --- | --- | --- | --- | --- | --- | --- | --- | --- | --- | --- | --- | --- |
| Cc1ccc(-c2nnc(N)s2)cc1 [2b, 5-(4-Methylphenyl)-1,3,4-thiadiazol-2-amine] | > 400 µM | > 400 µM | 10% | 55% | 144 µM | 8.0% | 16.7% | 8.4% | 124 µM | 134 µM | 70.9 µM | > 400 µM | 6.9% | 14.0% | 6.3% | 12.3% | 16.7% | 15.7% | 13.6% | 16.6% | Total Apoptosis (%) 48 h MCF-7 (MCF-7 cells [3]; 50 μM): 25.4% |
| Nc1nnc(-c2ccccc2)s1 [2a, 5-Phenyl-1,3,4-thiadiazol-2-amine] | > 400 µM | > 400 µM | 0% | 40% |  | 11.8% | 24.4% | 9.8% | 62.2 µM | 204 µM | 83.8 µM | > 400 µM | 9.0% | 17.6% | 8.9% | 13.7% | 12.8% | 14.7% | 15.0% | 18.4% | Total Apoptosis (%) 48 h MCF-7 (MCF-7 cells [3]; 50 μM): 24.7% |
| CC(=O)Nc1nnc(-c2ccccc2)s1 [3a, N-(5-Phenyl-1,3,4-thiadiazol-2-yl)acetamide] | > 400 µM | > 400 µM | 95% | 100% | < 6.25 µM | 17.6% | 24.9% | 17.9% | > 400 µM | > 400 µM | > 400 µM | > 400 µM | 14.9% | 20.1% | 14.5% | 22.3% | 26.6% | 18.2% | 22.6% | 20.1% | LC50 at 24 h [2]: < 6.25 µM |
| O=C(Nc1nnc(-c2ccccc2)s1)c1ccccc1CSc1ccccc1 [3c, 2-Phenylthiomethyl-N-(5-phenyl-1,3,4-thiadiazol-2-yl)benzamide] | > 400 µM | > 400 µM | 10% | 55% | 188 µM | 16.4% | 39.3% | 14.3% | > 400 µM | > 400 µM | > 400 µM | > 400 µM | 14.8% | 27.6% | 11.2% | 24.5% | 15.5% | 13.5% | 16.9% | 14.7% | Total Apoptosis (%) 48 h MCF-7 (MCF-7 cells [3]; 50 μM): 37.3% |
| COc1ccc(OC)c(-c2nnc(N)s2)c1 [2d, 5-(2,5-Dimethoxyphenyl)-1,3,4-thiadiazol-2-amine] | 122 µM | 154 µM | 40% | 95% | 50.7 µM | 14.6% | 37.6% | 11.8% | 29.2 µM | 53.6 µM | 94.8 µM | > 400 µM | 13.5% | 19.3% | 12.0% | 17.9% | 28.4% | 14.4% | 19.8% | 16.8% | LC50 at 24 h [2]: 241 µM; Total Apoptosis (%) 48 h MCF-7 (MCF-7 cells [3]; 50 μM): 34.9% |
